# According to patent US20260028390A1, “ALPHA1-ANTITRYPSIN FOR USE IN THE TREATMENT OF DISEASES OR DISORDERS OF THE NERVOUS SYSTEM SUCH AS CHRONIC INFLAMMATORY DEMYELINATING POLYNEUROPATHY” (Ageronix SA, priority 2022, published 2026):
# Tested on: HMC3-MHCII^Luc cells
# Experiment: RNAseq differential gene expression / GSEA in AAT-treated resting and IFNγ-activated microglia
# Type: cell-based, human
# Procedure: • A) Human microglial HMC3-MHCII^Luc cells were plated at day 0, presented IFNγ at day 1 until day 2 and measurement of the luciferase activity and cell viability were done at day 4. • B) AATs were applied from day 0 to day 4 on HMC3-MHCII^Luc cells. Activation was measured by the activity of MHCII-driven luciferase and represented as percentage of IFNγ control for all conditions. All conditions were performed in triplicates, error bars represent standard deviation. • C) Bulk RNA extraction was performed on the same HMC3-MHCII^Luc cultures. Quality control (QC) were applied to RNA before sequencing. QC of the sequencing was done prior to mapping on the human genome. Mapped reads were counted, and differential gene expression was measured between the conditions (see Table 1-10). (FIGS. 3A, 3B and 3C)
# RNAseq data from plasma-derived and recombinant AATs were pooled, normalized and analyzed through Gene Set Enrichment Analysis (GSEA) (https://www.gsea-msigdb.org/gsea/index.jsp; Subramanian, A., et al. Proc. Natl. Acad. Sci. USA, 102 (43): 15545-15550, 2005.). […] Importantly, both the IFNγ and inflammatory responses were dampened by AAT. However, the downregulation of the inflammatory response genes in (C) was just under significance.
# Tables of genes related to antigen presentation (Table 1), cytokine signaling (Table 2), interferon signaling (Table 3) and complement activation (Table 4). Inflammatory top gene (FC>2; p-value<0.05; left column), were defined by differential expression between untreated and IFNγ-treated cells (inflammation; middle column).
# HMC3-MHCII^Luc and HMC3-MHCII^Luc; Ubi^AAT (endogenous AAT) cell lines were seeded into 96-well plates at a density of approximately 2500 cells/well. HMC3-MHCII^Luc cell line was plated and was added plasma-derived AAT and recombinant AATs (produced in CHO cells, AAT 1 and AAT 2) 3h later and at ranged concentration (1; 10 or 25 μM). 24h after, still in the presence of exogenous or endogenous AAT, microglial activation was induced with a 24h-long IFNγ presentation (10 ng/ml). IFNγ was then removed and both HMC3-MHCII^Luc and HMC3-MHCII^Luc; Ubi^AAT cells were cultured for 48h in exogenous or endogenous presence of AAT before cell cultures were beeing assessed for cell viability and activation (See FIGS. 3A, 3B, 3C and 4A,4B, 4C).
# RNA samples from plasma-derived AAT and recombinant AAT Nr. 2 were checked for quality (2100 Bioanalyzer, Agilent) and libraries prepared with Truseq RNA Library Kit (Illumina, RS-122-2001). Libraries were sequenced (HiSeq 4000, Illumina) controlled for the quality of sequencing (FastQC), mapped on the human genome (STAR v.2.7.0f; UCSC hg38), reads were counted (HTSeq v0.9.1) and the differential expression analysis was performed with the R/Bioconductor package (edgeR 1.30.1.).
# [1] = Inflammation + AAT, AD risk gene
# [2] = Inflammation + AAT, MCT*/PN risk gene
# [3] = Inflammation + AAT, MS risk gene
# [4] = Inflammation + AAT, PD risk gene
# [5] = Regulated in AAT (resting condition), antigen presentation
# [6] = Regulated in AAT (resting condition), cytokine signalling
# [7] = Regulated in AAT (resting condition), interferon signaling
# [8] = head prints AAT (right block), GBS risk gene
# [9] = inflammation + AAT, antigen presentation
# [10] = inflammation + AAT, complement activation
# [11] = inflammation + AAT, cytokine signalling
# [12] = inflammation + AAT, interferon signaling
substance,measurement,setting,value
alpha1-antitrypsin (AAT) protein,IGFBP2 expression FC,"FC inflammation + AAT, M2 gene",1.34
same,IL1R1 expression FC,"FC inflammation + AAT, M2 gene",1.18
same,ITGA11 expression FC,"FC inflammation + AAT, M2 gene",1.54
same,KANK2 expression FC,"FC inflammation + AAT, M2 gene",1.25
same,KDM2B expression FC,"FC inflammation + AAT, M2 gene",1.17
same,KIAA1549L expression FC,"FC inflammation + AAT, M2 gene",1.44
same,LDHA expression FC,"FC inflammation + AAT, M2 gene",1.21
same,LOXL2 expression FC,"FC inflammation + AAT, M2 gene",1.25
same,MBOAT7 expression FC,"FC inflammation + AAT, M2 gene",1.37
same,METRN expression FC,"FC inflammation + AAT, M2 gene",1.64
same,MIF expression FC,"FC inflammation + AAT, M2 gene",1.72
same,MMP1 expression FC,"FC inflammation + AAT, M2 gene",2.39
same,MXRA8 expression FC,"FC inflammation + AAT, M2 gene",1.49
same,OLFML2B expression FC,"FC inflammation + AAT, M2 gene",1.44
same,PAPPA expression FC,"FC inflammation + AAT, M2 gene",1.31
same,PLEC expression FC,"FC inflammation + AAT, M2 gene",1.54
same,PLLP expression FC,"FC inflammation + AAT, M2 gene",1.46
same,PREX1 expression FC,"FC inflammation + AAT, M2 gene",1.28
same,PRSS23 expression FC,"FC inflammation + AAT, M2 gene",1.16
same,PTPRS expression FC,"FC inflammation + AAT, M2 gene",1.23
same,RASAL1 expression FC,"FC inflammation + AAT, M2 gene",1.45
same,SEMA3B expression FC,"FC inflammation + AAT, M2 gene",1.39
same,SERPINH1 expression FC,"FC inflammation + AAT, M2 gene",1.20
same,SH3PXD2B expression FC,"FC inflammation + AAT, M2 gene",1.19
same,SLC16A3 expression FC,"FC inflammation + AAT, M2 gene",1.65
same,STC2 expression FC,"FC inflammation + AAT, M2 gene",1.32
same,TBCD expression FC,"FC inflammation + AAT, M2 gene",1.26
same,TCEAL2 expression FC,"FC inflammation + AAT, M2 gene",1.30
same,TGFB1I1 expression FC,"FC inflammation + AAT, M2 gene",1.26
same,TGFBI expression FC,"FC inflammation + AAT, M2 gene",1.18
same,THBS1 expression FC,"FC inflammation + AAT, M2 gene",1.34
same,TNFRSF1B expression FC,"FC inflammation + AAT, M2 gene",1.23
same,ZIC2 expression FC,"FC inflammation + AAT, M2 gene",2.77
same,ZNF319 expression FC,"FC inflammation + AAT, M2 gene",1.25
same,ABCA7 expression FC,[1],1.36
same,APOE expression FC,[1],1.55
same,BIN1 expression FC,[1],1.43
same,PICALM expression FC,[1],−1.29
same,PSEN2 expression FC,[1],1.28
same,TREM2 expression FC,[1],1.47
same,CCT5 expression FC,[2],−1.13
same,DNAJB2* expression FC,[2],1.20
same,DST expression FC,[2],1.30
same,GARS* expression FC,[2],−1.24
same,GDAP1* expression FC,[2],−1.24
same,HSPB1* expression FC,[2],1.56
same,IGHMBP2* expression FC,[2],1.21
same,INF2 expression FC,[2],1.35
same,KARS* expression FC,[2],−1.13
same,LMNA* expression FC,[2],1.39
same,MED25* expression FC,[2],1.38
same,NDRG1* expression FC,[2],1.30
same,SCN9A expression FC,[2],−1.66
same,SEPT9 expression FC,[2],1.29
same,TFG* expression FC,[2],−1.19
same,TUBB3 expression FC,[2],1.44
same,TRPV4* expression FC,"Inflammation + AAT, MCT*/PN risk gene, first TRPV4* line",1.72
same,TRPV4* expression FC,"Inflammation + AAT, MCT*/PN risk gene, second TRPV4* line",1.40
same,AGAP2 expression FC,[3],1.45
same,CYP24A1 expression FC,[3],1.34
same,DKKL1 expression FC,[3],2.12
same,HLA-A expression FC,[3],1.57
same,HLA-DRB1 expression FC,[3],1.51
same,MPHOSPH9 expression FC,[3],−1.19
same,NFKBIZ expression FC,[3],−1.37
same,SLC30A7 expression FC,[3],−1.56
same,ZMIZ1 expression FC,[3],1.47
same,ATP13A2 expression FC,[4],1.49
same,DNAJC6 expression FC,[4],−1.12
same,GBA expression FC,[4],1.15
same,LRP10 expression FC,[4],1.23
same,PINK1 expression FC,[4],1.20
same,PLA2G6 expression FC,[4],1.37
same,SYNJ1 expression FC,[4],−1.23
same,UCHL1 expression FC,[4],−1.10
same,NFATC1 expression FC,[5],1.44
same,TRAF6 expression FC,[5],−1.26
same,PLAU expression FC,"Regulated in AAT (resting condition), complement activation",−1.27
same,BIRC2 expression FC,[6],−1.53
same,CEBPG expression FC,[6],−1.31
same,MYD88 expression FC,[6],−1.35
same,RASGRF2 expression FC,[6],−1.45
same,RIPK2 expression FC,[6],−1.30
same,SPTBN1 expression FC,[6],−1.21
same,STAT1 expression FC,[6],−1.47
same,TM7SF3 expression FC,[6],−1.18
same,TNFSF9 expression FC,[6],1.26
same,TRAF6 expression FC,[6],−1.26
same,IRF2 expression FC,[7],−1.17
same,STAT1 expression FC,[7],−1.47
same,FOS expression FC AAT,[8],−1.54
same,GUK1 expression FC AAT,[8],1.31
same,LY96 expression FC AAT,[8],−2.31
same,MARCKS expression FC AAT,[8],−1.84
same,NFIL3 expression FC AAT,[8],−1.22
same,ZNF12 expression FC AAT,[8],−1.23
same,genes related to the unfolded protein response (UPR) pathway and cell-survival (GSEA),"human microglial cells, AAT treatment",upregulation
same,CALR expression FC,[9],1.35
same,CTSA expression FC,[9],1.17
same,CTSD expression FC,[9],1.47
same,HLA-DOB expression FC,[9],−4.49
same,HLA-DPB1 expression FC,[9],1.31
same,HLA-DRA expression FC,[9],−2.22
same,IL1B expression FC,[9],−2.07
same,MRC2 expression FC,[9],1.47
same,NFATC2 expression FC,[9],1.63
same,PSMB9 expression FC,[9],−1.23
same,PYCARD expression FC,[9],2.20
same,SOCS3 expression FC,[9],1.20
same,TAPBP expression FC,[9],1.23
same,C3AR1 expression FC,[10],−1.50
same,ITGAX expression FC,[10],1.41
same,PLAUR expression FC,[10],1.32
same,SERPINB2 expression FC,[10],−4.63
same,ANXA1 expression FC,[11],−1.33
same,ATF3 expression FC,[11],−1.26
same,CX3CL1 expression FC,[11],1.61
same,CXCL1 expression FC,[11],−2.09
same,CXCL5 expression FC,[11],−2.15
same,DUSP6 expression FC,[11],−1.26
same,FGF2 expression FC,[11],−1.57
same,FSCN1 expression FC,[11],1.48
same,HBEGF expression FC,[11],−1.30
same,IL1B expression FC,[11],−2.07
same,IL1R1 expression FC,[11],1.18
same,IL18 expression FC,[11],−1.75
same,IL27RA expression FC,[11],1.36
same,IL411 expression FC,[11],1.95
same,JAK3 expression FC,[11],1.43
same,MAP2K2 expression FC,[11],1.51
same,MAP2K3 expression FC,[11],1.37
same,MAPK11 expression FC,[11],1.44
same,MAPK12 expression FC,[11],1.33
same,MAPK13 expression FC,[11],1.23
same,NFKBIZ expression FC,[11],−1.37
same,PSMB9 expression FC,[11],−1.23
same,RASAL1 expression FC,[11],1.52
same,SOCS3 expression FC,[11],1.20
same,STAT5A expression FC,[11],1.45
same,TNFRSF9 expression FC,[11],−2.35
same,TRAF2 expression FC,[11],1.42
same,CD44 expression FC,[12],1.14
same,FLNB expression FC,[12],−1.20
same,HLA-DPB1 expression FC,[12],1.31
same,HLA-DRA expression FC,[12],−2.22
same,IFIT1 expression FC,[12],−1.78
same,IFNAR1 expression FC,[12],−1.63
same,IRF3 expression FC,[12],1.56
same,MX1 expression FC,[12],−2.00
same,MX2 expression FC,[12],−2.14
same,SOCS3 expression FC,[12],1.20
same,USP18 expression FC,[12],−1.76
same,inflammatory top genes found affected by AAT treatment,"top genes FC>2, p-value<0.05, significantly and oppositely regulated",~35%
